Entries after “also recorded” stand apart in the source; their conditions may differ.
Experiments:
[1] = system: SH-SY5Y cells; assay: LDH release assay; format: cell-based, human
Procedure: Aβ is known to be toxic toward neurons and neuronally derived cells (I. Benilova, et al., 2012, cited supra). To corroborate the toxicity of Aβ, we prepared oligomers of Aβ42 and studied their toxicity toward a human neuroblastoma cell line, SH-SY5Y. Aβ oligomers were prepared according to the procedure developed by Teplow and coworkers using recombinantly expressed Aβ42 pretreated with NH4OH (purchased from rPeptide) (D. B. Teplow, Methods Enzymol. 2006 413, 20-33; and Y. Fezoui, et al., Amyloid. 2000 7, 166-178; the disclosures of which are incorporated herein by reference). Under the conditions of the oligomer preparation, Aβ42 forms predominantly monomer, trimer, and tetramer as assessed by SDS-PAGE (FIG. 28A). It was also observed that bands migrated with molecular weights consistent with a pentamer and hexamer. SH-SY5Y cells were treated with varying concentrations of Aβ42, and toxicity was evaluated using a lactate dehydrogenase (LDH) release assay. Aβ42 increased LDH release in a dose-dependent manner at concentrations as low as 2.5 μM, corroborating the toxicity of Aβ42 (FIG. 28B).
It was hypothesized that trimers 3 and 4 may elicit toxicity similarly to Aβ42. The toxicities of trimers 3 and 4 towards SH-SY5Y cells were evaluated using an LDH assay, using deionized water (vehicle) and peptides 1 and 2 as controls. Trimer 4 increased LDH release in a dose-dependent manner at concentrations as low as 1.5 μM, indicating toxicity toward SH-SY5Y cells (FIG. 29A). LDH release was observed as early as 48 h after addition to the cells and reached a maximum after 72 h.
Many oligomers formed by full-length Aβ are toxic toward cells (I. Benilove, E. Karan, and B. De Strooper, Nat. Neurosci. 2012 15, 349-357; and M. E. Larson and S. E. Lesne J. Neurochem. 2012 120, 125-139; the disclosures of which are incorporated herein by reference). To test whether the oligomers formed by peptide 8 are also toxic, the toxicity of peptide 8 toward neuronally derived SH-SY5Y cells were evaluated using a lactate dehydrogenase (LDH) release assay. Peptide 8 and 10 were compared to investigate how the hexamer-forming Aβ16-36-derived peptide compares to a non-oligomerizing homologue. The toxicity of peptides 2 and 11 were also evaluated to better understand the relationship between oligomerization and toxicity.
The toxicities of peptides 1 and […], and trimers 3 and 4 toward SH-SY5Y cells were assessed by LDH release and caspase-3 activation assays. Cells were incubated in the presence or absence of equivalent concentrations of peptides 1 or 3, or trimers 3 and 4 for 72 h in 96-well plates. The LDH release assay was performed using the Pierce LDH Cytotoxicity Assay Kit from Thermo Scientific. The caspase-3 assay was performed using the Roche APO-One Homogeneous Caspase-3/7 Assay. Experiments were performed in replicates of five and an additional 10 wells were used for controls. Cells were cultured in the inner 60 wells (rows B-G, columns 2-11) of the 96-well plate. DMEM:F12 media (100 μL) was added to the outer wells (rows A and H, columns 1 and 12), in order to ensure the greatest reproducibility of data generated in the inner wells.
A 10 mg/mL stock solution of peptides 1 or […], or trimers 3 and 4 was prepared gravimetrically by dissolving 1 mg of each compound in 100 μL of deionized water that was either filtered through a 0.2 μm syringe filter or autoclaved. The stock solution was used to create 180 μM working solutions of peptides 1 or 3, or 60 μM working solutions of trimers 3 and 4 (these solutions contain equivalent concentrations of peptide). The 180 μM working solutions of peptides 1 and 2 were serially diluted with deionized water to create 90 μM working solutions of peptides 1 and 2. The 60 μM working solutions of trimers 3 and 4 were serially diluted with deionized water to create 30 μM, 15 μM, and 7.5 μM working solutions of trimers 3 and 4.
SH-SY5Y cells were plated in a 96-well plate at 30,000 cells per well. […]

[2] = Tricine SDS-PAGE with silver staining; format: physicochemical
Excerpt: Trimer 3 migrates as a single band at a molecular weight consistent with a hexamer. Trimer 4, in contrast, migrates as two distinct bands: a band consistent with the molecular weight of a dodecamer, and a band consistent with the molecular weight of a trimer.
Peptide 8 assembles to form a hexamer in SDS-PAGE. […] To further confirm the oligomerization state of […], it was compared to covalent trimers 3 and 4 (FIGS. 19A and 19B), which was previously determined to migrate respectively as 10.6 kDa hexamers and 21.2 kDa dodecamers in equilibrium with the 5.3 kDa trimers. Peptide 8 migrates at the same molecular weight as the hexamer band of trimer 3, providing further evidence that peptide 8 assembles to form a hexamer in SDS-PAGE.
The oligomerization of peptides 1 and 2 and trimers 3 and 4 was studied by Tricine SDS-PAGE.
Each peptide or trimer was dissolved in deionized water to a concentration of 10 mg/mL. An aliquot of the 10 mg/mL solutions was diluted with deionized water to create 2 mg/mL solutions of peptides 1 and 2, or 0.12 mg/mL solutions of trimers 3 and 4. The […] of peptides 1 and 2, as well as the 0.12 mg/mL solutions of trimers 3 and 4 were further diluted with 2×SDS-PAGE loading buffer (100 mM Tris buffer at pH 6.8, 20% (v/v) glycerol, and 4% SDS) to create 1 mg/mL working solutions of peptides 1 and 2, and 0.06 mg/mL working solutions of trimers 3 and 4. A 5 μL aliquot of each working solution was run on a 16% polyacrylamide gel with a 4% stacking polyacrylamide gel. The gels were run at a constant 60 volts at 4° C.
Staining with silver nitrate was used to visualize peptides 1 and 2 and trimers 3 and 4 in the SDS-PAGE gel. Briefly, the gel was removed from the casting glass and rocked in fixing solution (50% (v/v) methanol and 5% (v/v) acetic acid in deionized water) for 20 min. Next, the fixing solution was discarded and the gel was rocked in 50% (v/v) methanol for 10 min. Next, the 50% methanol was discarded and the gel was rocked in deionized water for 10 min. Next, the water was discarded and the gel was rocked in 0.02% (w/v) sodium thiosulfate in deionized water for 1 min. The sodium thiosulfate was discarded and the gel was rinsed with deionized water (2×). After the last rinse, the gel was submerged in chilled 0.1% (w/v) silver nitrate in deionized water and rocked at 4° C. for 20 min. Next, the silver nitrate solution was discarded and the gel was rinsed with deionized water (2×). To develop the gel, the gel was incubated in developing solution (2% w/v sodium carbonate, 0.04% formaldehyde until the desired intensity of staining was reached (˜1-3 min). When the desired intensity of staining was reached, the development was topped by discarding the developing solution and submerging the gel in 5% acetic acid.

[3] = size exclusion chromatography in Tris buffer; format: physicochemical
Excerpt: The elution profile of peptide 8 was compared to the size standards vitamin B12, aprotinin, and cytochrome c, as well as peptide 2. Peptide 8 elutes as a broad peak with three distinct humps (FIG. 41B). […] Peptide 2 elutes as two distinct peaks: a larger peak with an elution volume consistent with the molecular weight of a dimer, and a smaller peak with an elution volume consistent with the molecular weight of a trimer (FIG. 41B). […]

| Substance | lowest concentration with increased LDH release / toxicity (concentrations as low as) ([1]; SH-SY5Y cells) [µM] | dose dependence of LDH release ([1]; 50, 100 and 200 μM) | LDH release / toxicity toward SH-SY5Y cells, in words ([1]; SH-SY5Y cells) | oligomer state by migration in SDS-PAGE [2] | oligomer size ([3]; SEC) | oligomer state consistent with SEC elution volume ([3]; absence of SDS) |
| --- | --- | --- | --- | --- | --- | --- |
| Aβ42: oligomers prepared from recombinantly expressed Aβ42 pretreated with NH4OH (purchased from rPeptide) [reference compound] | 2.5 |  |  |  |  |  |
| peptide 8: Aβ16-22 and Aβ30-36 β-strands linked by two δOrn turn units, N-methyl on Phe19, native Met35 (Seq. ID 33-34) | 50 | No dose dependence | toxic | hexamer | monomer, dimer,; also recorded: trimer | dimers and trimers; also recorded: monomer, dimer, and trimer |
